{"source": "paper PMC5920042", "about": "“KH176 Safeguards Mitochondrial Diseased Cells from Redox Stress-Induced Cell Death by Interacting with the Thioredoxin System/Peroxiredoxin Enzyme Machinery” (Scientific Reports, 2018)", "key": {"[1]": {"system": "primary human skin fibroblasts", "experiment": "Mitochondrial superoxide detection by mitoSOX oxidation", "format": "cell-based", "details": "30 min preincubation, no external stimulus", "description": "The cells were seeded at a density of 3 × 10^3 cells/well into 96-wells black plates. After 24 h, the cells were incubated with different amounts of KH176(m) in M199 without phenol red. This medium was used in all subsequent washes and incubations. After 30 min. incubation the cells were washed and subsequently incubated 1 µM mitoSOX (#M36008, ThermoFisher). […] After 10 min incubation the cells were washed twice and incubated for 30 min. to allow the accumulation of oxidized mitoSOX in the mitochondria. […] Wells with cells but without mitoSOX were used for background correction. Experiments were performed at least three times with 3 wells per experiment."}, "[2]": {"experiment": "Single dose pharmacokinetics and bioavailability study", "format": "in vivo, male C57BL/6 mice", "details": "mouse", "description": "Pharmacokinetics and toxicokinetics measurements were performed by the commercial Contract Research Organizations Sai Life Sciences and WuXi AppTec, respectively, according to their standard protocols and in accordance with relevant guidelines and regulations. C57 BL/6 mice, Sprague Dawley rats, and Beagle dogs were studied."}, "human Prdx2": {"target": "T1, human Prdx2 (Homo sapiens, UniProt P32119)", "T1 construct": "purchased Novus Biological NBC1-25855", "T1 sequence (P32119 1-198)": "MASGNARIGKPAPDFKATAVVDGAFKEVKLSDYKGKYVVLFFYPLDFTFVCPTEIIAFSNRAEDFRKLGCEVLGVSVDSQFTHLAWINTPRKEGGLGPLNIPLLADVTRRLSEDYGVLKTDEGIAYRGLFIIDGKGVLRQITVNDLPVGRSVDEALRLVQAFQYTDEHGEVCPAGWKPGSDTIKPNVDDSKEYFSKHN", "experiment": "Surface Plasmon Resonance binding", "details": "immobilized Prdx2, SPR; for Binding to Prdx2: 0.31-5.0 µM", "description": "Prior to protein immobilization all proteins were dialyzed against HBS-E (10 mM Hepes, 150 mM NaCl, 3 mM EDTA) buffer that was previously filtered through a 0.45 µM membrane using dialyze slide according to the manufacturer instruction. Human recombinant proteins peroxiredoxin 2 (Novus Biological NBC1-25855) and CCDC101 (Abcam Ab124547) were immobilized on CM5 (carboxymethylated dextran covalently attached to a gold surface) using the amine coupling method according to manufacturer’s recommendation (Biacore, GE Healthcare). Briefly the CM5 surface was activated with the mixture of EDC/NHS. Recombinant proteins at dilution 1 µg/ml in a corresponding buffer i.e. Peroxiredoxin 2 and CCDC101 in sodium acetate buffer 100 mM (pH 4.9). The control channel was activated with EDC/NHS. All channels were thereafter saturated with 0.1 M ethanolamine solution. KH176 andKH176m were solubilized in HBSS at stock solution 1 mM. They were thereafter further diluted in HBSS to final concentrations 0.31e-6M, 0.62e-6M, 1.25e-6M, 2.5e-6M and 5.0e-6M and injected over the flow cells at a flow rate equal to […] for 2 min, followed by a dissociation phase of 4 min. The sensor chip surface was regenerated with 1 mM HCl. The specific binding profiles were obtained after subtracting the response signal from the control empty channel and from blank-buffer injection. The specific binding was calculated using Biaeval 3 software (Biacore, GE Healthcare) with the postulate of 1:1 ligand/analyte interaction. Based on the Chi^2 value in regard to the Rmax (less than 10%) and the difference interval ±2.5 RU theoretic fitting compared to experimental results, best fitting algorithm between Langmuir or drifting base line was applied."}, "[3]": {"system": "primary human skin fibroblasts", "experiment": "Cellular superoxide detection by HEt oxidation", "format": "cell-based", "details": "24 h compound", "description": "The cells were seeded at a density of 3 × 10^3 cells/well into 96-wells black plates. After 24 h, the cells were incubated with different amounts of KH176(m) for 24 h. For the cellular superoxide measurements cells were then washed with M199 without phenol red and incubated with HEt (#D11347, ThermoFisher) in this same medium for 10 minutes. […] Total cellular fluorescence per well was normalized on the incubation with the probe but without compound (vehicle set as 100%). Experiments were performed at least three times with 3 wells per experiment."}, "P4 cell line": {"system": "P4 cell line", "experiment": "Radical-Scavenging Capacity assay (CM-H2DCFDA, H2O2 or KO2)", "format": "cell-based, human", "details": "P4 cells, 100 µM H2O2 or 1 mM KO2 (text: KOH), 3 µM compound", "description": "Cells were seeded at a density of 4 × 10^3 cells/well into 96-wells black plates. After 24 h the cells were loaded with 5 µM CM-H2DCFDA in M199 without phenol red for 20 min. The dye excess was washed with M199 without phenol red and immediately after, cells were treated acutely with different concentrations of the test compounds in M199 without phenol red. To generate radicals, 100 µM H2O2 or 1 mM KO2 were injected to the compound-treated cells and CM-DCF fluorescence was measured every 2 min for 70 cycles on a scanning microplate reader (BMG FLUOstar Omega; Ex. 480 nm, Em. 520 nm). The area under the generated curves was calculated using the Origin 6.1 software (OriginLab)."}, "[4]": {"details": "male, C57BL/6, iv, KH176 2 mg/kg i.v., plasma"}, "[5]": {"details": "male, C57BL/6, po, KH176 10 mg/kg p.o., plasma"}}, "note": "Like-named read-outs stand apart in the source and are kept apart here. Marks after values point to notes of the source that are not given here.", "data": [{"smiles": "CC1=C(C)C(=O)C(CC[C@](C)(O)C(=O)N[C@@H]2CCCNC2)=C(C)C1=O", "note": "[KH176m]", "values": [{"measurement": "IC50", "setting": "[1]; read-out: IC50 mitochondrial superoxide levels (mitoSOX)", "result": 1400, "unit": "nM"}, {"measurement": "Brain to Plasma ratio, range (1–8 hours)", "setting": "[2]; KH176 2 mg/kg i.v.", "result": "b.d."}, {"measurement": "Heart to Plasma ratio, range (1–8 hours)", "setting": "[2]; KH176 2 mg/kg i.v.", "result": "6.1–11.6"}, {"measurement": "Liver to Plasma ratio, range (1–8 hours)", "setting": "[2]; KH176 2 mg/kg i.v.", "result": "29.0–57.1"}, {"measurement": "Skeletal muscle to Plasma ratio, range (1–8 hours)", "setting": "[2]; KH176 2 mg/kg i.v.", "result": "8.2–20.5"}, {"measurement": "AUCINF", "setting": "[2]; KH176 2 mg/kg i.v., plasma", "result": 146.9, "unit": "ng·h/mL"}, {"measurement": "AUClast", "setting": "[2]; KH176 2 mg/kg i.v., plasma", "result": 140.0, "unit": "ng·h/mL"}, {"measurement": "T1/2", "setting": "[2]; KH176 2 mg/kg i.v., plasma", "result": 30, "unit": "min"}, {"measurement": "C0 (i.v.)", "setting": "[2]; KH176 2 mg/kg i.v., plasma, back extrapolated", "result": 359.3, "unit": "ng/mL"}, {"measurement": "Brain to Plasma ratio, range (1–8 hours)", "setting": "[2]; KH176 10 mg/kg p.o.", "result": "0.1–19.6"}, {"measurement": "Heart to Plasma ratio, range (1–8 hours)", "setting": "[2]; KH176 10 mg/kg p.o.", "result": "2.1–14.6"}, {"measurement": "Liver to Plasma ratio, range (1–8 hours)", "setting": "[2]; KH176 10 mg/kg p.o.", "result": "12.8–94.1"}, {"measurement": "AUCINF", "setting": "[2]; KH176 10 mg/kg p.o., plasma", "result": 1260.8, "unit": "ng·h/mL"}, {"measurement": "AUClast", "setting": "[2]; KH176 10 mg/kg p.o., plasma", "result": 1225.2, "unit": "ng·h/mL"}, {"measurement": "Cmax (p.o.)", "setting": "[2]; KH176 10 mg/kg p.o., plasma", "result": 1061.8, "unit": "ng/mL"}, {"measurement": "Tmax", "setting": "[2]; KH176 10 mg/kg p.o., plasma", "result": 15, "unit": "min"}, {"measurement": "Skeletal muscle to Plasma ratio, range at 1 hour", "setting": "[2]; KH176 10 mg/kg p.o., no concentrations detected at 8 hours", "result": "4.4–33.8^d"}, {"measurement": "Binding to Prdx2", "setting": "human Prdx2", "result": "dose-dependent binding"}, {"measurement": "Kd", "setting": "human Prdx2; read-out: Affinity (Kd), Langmuir one site model", "result": 305, "unit": "nM"}, {"measurement": "EC50", "setting": "[3]; basal, read-out: EC50 decrease of basal cellular superoxide levels (HEt)", "result": 1700, "unit": "nM"}, {"measurement": "Reduction of H2O2-induced radicals and O2.- (CM-H2DCFDA oxidation)", "setting": "P4 cell line", "result": "able to reduce the levels of both radicals"}]}, {"smiles": "Cc1c(C)c2c(c(C)c1O)CC[C@@](C)(C(=O)N[C@@H]1CCCNC1)O2.Cl", "note": "[KH176, (S)-6-hydroxy-2,5,7,8-tetramethyl-N-((R)-piperidin-3-yl)chroman-2-carboxamide hydrochloride]", "values": [{"measurement": "Potency on mitochondrial superoxide levels (mitoSOX)", "setting": "[1]", "result": "much less potent"}, {"measurement": "Kp", "setting": "[2]; male, C57BL/6, brain, iv, KH176 2 mg/kg i.v., read-out: Brain to Plasma ratio, range (1–8 hours)", "result": "1 to 25"}, {"measurement": "Kp", "setting": "[2]; male, C57BL/6, brain, po, KH176 10 mg/kg p.o., read-out: Brain to Plasma ratio, range (1–8 hours)", "result": "0.4 to 0.8"}, {"measurement": "Kp", "setting": "[2]; male, C57BL/6, heart, iv, KH176 2 mg/kg i.v., read-out: Heart to Plasma ratio, range (1–8 hours)", "result": "4.3 to 28.3"}, {"measurement": "Kp", "setting": "[2]; male, C57BL/6, heart, po, KH176 10 mg/kg p.o., read-out: Heart to Plasma ratio, range (1–8 hours)", "result": "2.4 to 5.7"}, {"measurement": "AUC(0-inf)", "setting": "[2]; [4]", "result": 191, "unit": "ng·h/mL"}, {"measurement": "AUC(0-t)", "setting": "[2]; [4]", "result": 181, "unit": "ng·h/mL"}, {"measurement": "clearance", "setting": "[2]; [4]", "result": 175, "unit": "mL/min/kg"}, {"measurement": "half-life", "setting": "[2]; [4]", "result": 84, "unit": "min"}, {"measurement": "C0", "setting": "[2]; male, C57BL/6, iv, KH176 2 mg/kg i.v., plasma, back extrapolated", "result": 543, "unit": "ng/mL"}, {"measurement": "Kp", "setting": "[2]; male, C57BL/6, liver, iv, KH176 2 mg/kg i.v., read-out: Liver to Plasma ratio, range (1–8 hours)", "result": "10.5 to 29.3"}, {"measurement": "Kp", "setting": "[2]; male, C57BL/6, liver, po, KH176 10 mg/kg p.o., read-out: Liver to Plasma ratio, range (1–8 hours)", "result": "5.7 to 12.1"}, {"measurement": "Vd", "setting": "[2]; male, C57BL/6, plasma, iv, KH176 2 mg/kg i.v., read-out: Vss", "result": 9.5, "unit": "L/kg"}, {"measurement": "bioavailability", "setting": "[2]; male, C57BL/6, plasma, oral, 10 mg/kg p.o. vs 2 mg/kg i.v., from AUClast, read-out: F (oral bioavailability)", "result": 68, "unit": "%"}, {"measurement": "AUC(0-inf)", "setting": "[2]; [5]", "result": 624, "unit": "ng·h/mL"}, {"measurement": "AUC(0-t)", "setting": "[2]; [5]", "result": 618, "unit": "ng·h/mL"}, {"measurement": "Cmax", "setting": "[2]; [5]", "result": 414, "unit": "ng/mL"}, {"measurement": "Tmax", "setting": "[2]; male, C57BL/6, po, KH176 10 mg/kg p.o., plasma, read-out: Tmax", "result": 15, "unit": "min"}, {"measurement": "Kp", "setting": "[2]; male, C57BL/6, skeletal muscle, iv, KH176 2 mg/kg i.v., read-out: Skeletal muscle to Plasma ratio, range (1–8 hours)", "result": "8.7 to 20.1"}, {"measurement": "Kp", "setting": "[2]; male, C57BL/6, skeletal muscle, po, KH176 10 mg/kg p.o., read-out: Skeletal muscle to Plasma ratio, range (1–8 hours)", "result": "0.8 to 5.2"}, {"measurement": "Binding to Prdx2", "setting": "human Prdx2", "result": "not"}, {"measurement": "Effect on basal cellular superoxide levels (HEt)", "setting": "[3]", "result": "no effect"}, {"measurement": "Reduction of H2O2-induced radicals and O2.- (CM-H2DCFDA oxidation)", "setting": "P4 cell line", "result": "able to reduce the levels of both radicals"}]}]}
